In PMC4859819 (Molecular Pharmacology, 2016):

Key:
Test in all cases: two-electrode voltage clamp, Xenopus oocytes
Assay type in all cases: cell-based
[1] = target: T1, GluN1/GluN2B receptor (rat GluN1-1a, mouse GluN2B) (Rattus norvegicus; Mus musculus, UniProt P35439+Q01097, Q01097:P177C)
T1 construct: gene Grin1; full-length receptors from pcDNA3-based plasmids, Xenopus laevis oocytes, cDNA ratio 1:1; heterotetramer, usually two GluN1 and two GluN2
Text: (§1) two-electrode voltage clamp, Xenopus oocytes on GluN1/GluN2B receptor (rat GluN1-1a, mouse GluN2B)

[2] = target: T2, GluN1/GluN2B receptor (rat GluN1-1a, mouse GluN2B) (Rattus norvegicus; Mus musculus, UniProt P35439+Q01097, P35439:Y109S)
T2 construct: gene Grin1; full-length receptors from pcDNA3-based plasmids, Xenopus laevis oocytes, cDNA ratio 1:1; heterotetramer, usually two GluN1 and two GluN2
Text: as §1

[3] = target: T3, GluN1/GluN2B receptor (rat GluN1-1a, mouse GluN2B) (Rattus norvegicus; Mus musculus, UniProt P35439+Q01097, Q01097:F176A)
T3 construct: gene Grin1; full-length receptors from pcDNA3-based plasmids, Xenopus laevis oocytes, cDNA ratio 1:1; heterotetramer, usually two GluN1 and two GluN2
Text: as §1

[4] = target: T4, GluN1/GluN2B receptor (rat GluN1-1a, mouse GluN2B) (Rattus norvegicus; Mus musculus, UniProt P35439+Q01097, P35439:L135W)
T4 construct: gene Grin1; full-length receptors from pcDNA3-based plasmids, Xenopus laevis oocytes, cDNA ratio 1:1; heterotetramer, usually two GluN1 and two GluN2
Text: as §1

[5] = target: T5, GluN1/GluN2B receptor (rat GluN1-1a, mouse GluN2B) (Rattus norvegicus; Mus musculus, UniProt P35439+Q01097, Q01097:A135G)
T5 construct: gene Grin1; full-length receptors from pcDNA3-based plasmids, Xenopus laevis oocytes, cDNA ratio 1:1; heterotetramer, usually two GluN1 and two GluN2
Text: as §1

[6] = target: T6, GluN1/GluN2B receptor (rat GluN1-1a, mouse GluN2B) (Rattus norvegicus; Mus musculus, UniProt P35439+Q01097)
T6 construct: gene Grin1; full-length receptors from pcDNA3-based plasmids, Xenopus laevis oocytes, cDNA ratio 1:1; heterotetramer, usually two GluN1 and two GluN2
Text: as §1

[7] = target: T7, GluN1/GluN2B receptor (rat GluN1-1a, mouse GluN2B) (Rattus norvegicus; Mus musculus, UniProt P35439+Q01097, Q01097:A135P)
T7 construct: gene Grin1; full-length receptors from pcDNA3-based plasmids, Xenopus laevis oocytes, cDNA ratio 1:1; heterotetramer, usually two GluN1 and two GluN2
Text: as §1

[8] = target: T8, GluN1/GluN2B receptor (rat GluN1-1a, mouse GluN2B) (Rattus norvegicus; Mus musculus, UniProt P35439+Q01097, P35439:L135H)
T8 construct: gene Grin1; full-length receptors from pcDNA3-based plasmids, Xenopus laevis oocytes, cDNA ratio 1:1; heterotetramer, usually two GluN1 and two GluN2
Text: as §1

[9] = target: T9, GluN1/GluN2B receptor (rat GluN1-1a, mouse GluN2B) (Rattus norvegicus; Mus musculus, UniProt P35439+Q01097, Q01097:F114S)
T9 construct: gene Grin1; full-length receptors from pcDNA3-based plasmids, Xenopus laevis oocytes, cDNA ratio 1:1; heterotetramer, usually two GluN1 and two GluN2
Text: as §1

[10] = target: T10, GluN1/GluN2B receptor (rat GluN1-1a, mouse GluN2B) (Rattus norvegicus; Mus musculus, UniProt P35439+Q01097, Q01097:Q110G)
T10 construct: gene Grin1; full-length receptors from pcDNA3-based plasmids, Xenopus laevis oocytes, cDNA ratio 1:1; heterotetramer, usually two GluN1 and two GluN2
Text: as §1

[11] = target: T11, GluN1/GluN2B receptor (rat GluN1-1a, mouse GluN2B) (Rattus norvegicus; Mus musculus, UniProt P35439+Q01097, P35439:Y109C)
T11 construct: gene Grin1; full-length receptors from pcDNA3-based plasmids, Xenopus laevis oocytes, cDNA ratio 1:1; heterotetramer, usually two GluN1 and two GluN2
Text: as §1

T7 sequence (Q01097 27-1482 A135P, other chains not shown): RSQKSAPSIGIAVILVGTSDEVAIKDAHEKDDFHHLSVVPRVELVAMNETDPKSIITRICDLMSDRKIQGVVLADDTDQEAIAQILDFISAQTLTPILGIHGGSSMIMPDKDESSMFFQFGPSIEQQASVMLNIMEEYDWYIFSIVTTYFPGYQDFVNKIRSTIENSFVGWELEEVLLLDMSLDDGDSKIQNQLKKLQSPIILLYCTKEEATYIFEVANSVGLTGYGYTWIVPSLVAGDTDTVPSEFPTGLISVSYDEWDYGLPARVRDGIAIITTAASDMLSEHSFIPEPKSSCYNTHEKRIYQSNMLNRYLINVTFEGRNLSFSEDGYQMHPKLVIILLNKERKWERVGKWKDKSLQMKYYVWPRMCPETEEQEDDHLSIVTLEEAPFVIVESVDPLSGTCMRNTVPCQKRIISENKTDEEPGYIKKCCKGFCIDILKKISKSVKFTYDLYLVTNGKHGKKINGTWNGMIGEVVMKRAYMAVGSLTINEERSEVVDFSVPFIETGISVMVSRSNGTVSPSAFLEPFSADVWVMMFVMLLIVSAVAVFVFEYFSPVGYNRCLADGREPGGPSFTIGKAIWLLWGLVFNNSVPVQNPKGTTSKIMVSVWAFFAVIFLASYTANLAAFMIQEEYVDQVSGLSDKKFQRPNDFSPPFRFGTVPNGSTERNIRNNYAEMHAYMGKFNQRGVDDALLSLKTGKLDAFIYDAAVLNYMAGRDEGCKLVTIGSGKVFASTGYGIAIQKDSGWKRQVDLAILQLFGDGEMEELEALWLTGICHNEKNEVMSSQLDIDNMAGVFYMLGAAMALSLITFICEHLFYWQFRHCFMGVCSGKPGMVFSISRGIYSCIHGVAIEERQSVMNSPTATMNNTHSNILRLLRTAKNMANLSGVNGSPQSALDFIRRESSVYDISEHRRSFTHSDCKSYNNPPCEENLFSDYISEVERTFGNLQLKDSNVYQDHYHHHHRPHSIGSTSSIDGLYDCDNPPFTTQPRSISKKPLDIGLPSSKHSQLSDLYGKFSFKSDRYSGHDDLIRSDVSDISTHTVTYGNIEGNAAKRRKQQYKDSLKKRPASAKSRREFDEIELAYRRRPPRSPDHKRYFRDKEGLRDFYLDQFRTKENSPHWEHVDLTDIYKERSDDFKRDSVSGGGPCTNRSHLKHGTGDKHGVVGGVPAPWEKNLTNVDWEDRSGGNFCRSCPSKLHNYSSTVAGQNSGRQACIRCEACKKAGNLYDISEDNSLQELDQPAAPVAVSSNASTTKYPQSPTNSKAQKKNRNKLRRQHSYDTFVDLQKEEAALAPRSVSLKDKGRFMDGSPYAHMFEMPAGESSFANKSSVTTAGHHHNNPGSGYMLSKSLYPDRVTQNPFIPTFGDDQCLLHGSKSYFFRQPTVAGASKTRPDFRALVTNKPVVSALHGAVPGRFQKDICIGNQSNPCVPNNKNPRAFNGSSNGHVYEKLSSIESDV
T5 sequence (Q01097 27-1482 A135G, other chains not shown): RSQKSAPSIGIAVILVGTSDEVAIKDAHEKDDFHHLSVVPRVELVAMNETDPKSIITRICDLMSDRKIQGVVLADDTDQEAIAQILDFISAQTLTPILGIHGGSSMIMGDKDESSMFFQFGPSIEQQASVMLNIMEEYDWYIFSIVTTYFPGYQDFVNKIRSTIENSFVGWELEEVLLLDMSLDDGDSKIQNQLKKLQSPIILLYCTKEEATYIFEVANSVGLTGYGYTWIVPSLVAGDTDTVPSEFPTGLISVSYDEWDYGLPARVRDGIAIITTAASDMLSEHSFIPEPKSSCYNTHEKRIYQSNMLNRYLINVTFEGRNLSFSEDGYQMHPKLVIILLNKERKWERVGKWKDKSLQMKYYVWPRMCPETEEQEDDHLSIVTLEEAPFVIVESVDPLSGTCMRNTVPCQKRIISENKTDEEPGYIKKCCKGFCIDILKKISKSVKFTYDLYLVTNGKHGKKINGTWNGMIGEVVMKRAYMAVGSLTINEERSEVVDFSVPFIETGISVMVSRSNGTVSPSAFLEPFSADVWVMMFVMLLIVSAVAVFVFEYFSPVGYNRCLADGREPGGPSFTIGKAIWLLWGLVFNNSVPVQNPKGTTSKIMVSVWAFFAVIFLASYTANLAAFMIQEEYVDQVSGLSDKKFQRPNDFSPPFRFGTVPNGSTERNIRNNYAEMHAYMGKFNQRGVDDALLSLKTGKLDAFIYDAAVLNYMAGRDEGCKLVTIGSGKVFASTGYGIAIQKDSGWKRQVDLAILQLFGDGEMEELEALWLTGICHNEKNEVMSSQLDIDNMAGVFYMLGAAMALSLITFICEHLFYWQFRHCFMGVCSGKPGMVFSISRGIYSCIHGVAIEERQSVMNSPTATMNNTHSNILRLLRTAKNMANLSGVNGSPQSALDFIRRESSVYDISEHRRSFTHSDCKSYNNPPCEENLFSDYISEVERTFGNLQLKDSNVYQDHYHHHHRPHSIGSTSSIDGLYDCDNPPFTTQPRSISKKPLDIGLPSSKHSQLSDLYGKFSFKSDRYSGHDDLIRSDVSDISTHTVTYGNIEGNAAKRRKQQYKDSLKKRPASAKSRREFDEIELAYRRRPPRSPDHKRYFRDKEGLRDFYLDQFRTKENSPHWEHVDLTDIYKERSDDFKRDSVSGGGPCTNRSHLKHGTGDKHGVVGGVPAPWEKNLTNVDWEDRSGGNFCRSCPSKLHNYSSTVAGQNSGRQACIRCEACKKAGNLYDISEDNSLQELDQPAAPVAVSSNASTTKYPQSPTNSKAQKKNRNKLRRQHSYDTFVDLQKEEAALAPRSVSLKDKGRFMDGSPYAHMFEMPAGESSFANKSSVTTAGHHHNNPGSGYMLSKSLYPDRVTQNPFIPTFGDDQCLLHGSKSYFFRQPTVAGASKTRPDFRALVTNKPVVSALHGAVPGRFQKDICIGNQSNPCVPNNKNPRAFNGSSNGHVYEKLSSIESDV
T1 sequence (Q01097 27-1482 P177C, other chains not shown): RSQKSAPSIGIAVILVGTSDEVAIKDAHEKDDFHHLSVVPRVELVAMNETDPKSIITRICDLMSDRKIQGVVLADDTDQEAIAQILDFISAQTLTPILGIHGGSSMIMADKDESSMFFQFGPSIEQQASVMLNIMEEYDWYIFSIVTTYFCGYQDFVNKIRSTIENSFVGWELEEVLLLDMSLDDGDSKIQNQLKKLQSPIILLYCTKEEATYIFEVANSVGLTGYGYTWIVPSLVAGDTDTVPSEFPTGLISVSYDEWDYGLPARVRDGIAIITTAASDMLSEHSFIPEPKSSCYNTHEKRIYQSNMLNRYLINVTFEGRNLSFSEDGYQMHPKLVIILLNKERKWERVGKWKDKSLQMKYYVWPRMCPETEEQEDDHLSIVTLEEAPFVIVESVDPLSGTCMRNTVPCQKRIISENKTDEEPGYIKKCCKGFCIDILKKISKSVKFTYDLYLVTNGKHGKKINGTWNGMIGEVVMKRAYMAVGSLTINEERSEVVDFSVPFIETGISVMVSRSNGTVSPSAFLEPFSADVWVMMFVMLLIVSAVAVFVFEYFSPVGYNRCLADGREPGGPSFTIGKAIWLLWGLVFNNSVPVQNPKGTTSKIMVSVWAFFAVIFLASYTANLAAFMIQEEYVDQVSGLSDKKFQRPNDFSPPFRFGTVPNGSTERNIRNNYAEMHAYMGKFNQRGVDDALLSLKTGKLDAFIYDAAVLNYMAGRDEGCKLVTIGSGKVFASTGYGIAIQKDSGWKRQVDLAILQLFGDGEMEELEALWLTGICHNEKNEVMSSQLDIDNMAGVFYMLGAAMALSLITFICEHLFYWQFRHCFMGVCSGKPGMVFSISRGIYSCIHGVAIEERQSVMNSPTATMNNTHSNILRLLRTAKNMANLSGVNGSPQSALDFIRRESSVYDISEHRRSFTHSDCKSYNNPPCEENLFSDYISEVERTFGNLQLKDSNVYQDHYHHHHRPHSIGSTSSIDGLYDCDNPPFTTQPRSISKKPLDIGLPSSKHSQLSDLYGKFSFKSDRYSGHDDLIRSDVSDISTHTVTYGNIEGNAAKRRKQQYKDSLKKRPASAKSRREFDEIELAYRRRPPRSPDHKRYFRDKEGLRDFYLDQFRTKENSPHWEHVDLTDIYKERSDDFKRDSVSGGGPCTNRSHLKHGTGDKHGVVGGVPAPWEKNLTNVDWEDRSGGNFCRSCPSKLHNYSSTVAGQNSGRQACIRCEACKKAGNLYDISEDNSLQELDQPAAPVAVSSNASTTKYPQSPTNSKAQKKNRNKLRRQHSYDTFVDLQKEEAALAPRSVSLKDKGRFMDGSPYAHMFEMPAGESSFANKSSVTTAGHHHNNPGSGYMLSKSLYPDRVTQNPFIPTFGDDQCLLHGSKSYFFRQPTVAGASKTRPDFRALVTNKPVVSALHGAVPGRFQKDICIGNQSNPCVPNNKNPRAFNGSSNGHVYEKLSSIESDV

Cc1nccn1Cc1cc(-c2ccc(F)c(C(F)F)c2)cnn1 [compound 1, 5-(3-(difluoromethyl)-4-fluorophenyl)-3-((2-methyl-1H-imidazol-1-yl)methyl)pyridazine]
IC50 [1]: 75 ± 12 nM
IC50 [2]: 9620 ± 700 nM
IC50 [3]: 11400 ± 1000 nM
IC50 [4]: 9 ± 1 nM
IC50 [5]: 72 ± 7 nM
IC50 [6]: 12 ± 0.2 nM
IC50 [7]: 404 ± 15 nM
IC50 [8]: 71 ± 7 nM
IC50 [9]: 676 ± 10 nM
IC50 [10]: 502 ± 14 nM
IC50 [11]: 7300 ± 260 nM
